Our source for the Rifaximin solubility, solubility of rifaximin and water solubility values is patent US9452157B2, “Pharmaceutical compositions comprising rifaximin and amino acids, preparation methods and use thereof” (ALFA WASSERMANN SPA, priority 2012, dated 2016).

The format of data set [1] is physicochemical. Here is the method:
A rifaximin amount corresponding to 200 mg was dissolved in 10 ml of a solution formed by ethanol/water 1:4 (v/v), left for two days under stirring at room temperature.
Rifaximin solubility was determined by wavelength spectrophotometry at wavelength 276 nm with a rifaximin calibration curve.

For data set [2] the following is noted: WO 2005/044823; cited from earlier work.

As for `CO[C@H]1/C=C/O[C@@]2(C)Oc3c(C)c(O)c4c(O)c(c5c(nc6cc(C)ccn65)c4c3C2=O)NC(=O)/C(C)=C\C=C\[C@H](C)[C@H](O)[C@@H](C)[C@@H](O)[C@@H](C)[C@H](OC(C)=O)[C@@H]1C` [Rifaximin], in data set [1], the Rifaximin solubility is 48 µg/mL and the solubility of rifaximin was 48 µg/mL. As to `CO[C@H]1/C=C/O[C@@]2(C)Oc3c(C)c(O)c4c(O)c(c5c(nc6cc(C)ccn65)c4c3C2=O)NC(=O)/C(C)=C\C=C\[C@H](C)[C@H](O)[C@@H](C)[C@@H](O)[C@@H](C)[C@H](OC(C)=O)[C@@H]1C` [rifaximin polymorph α], the water solubility result in data set [2] was “substantially insoluble”.
